Tests used:
S. aureus 495 = assay: MIC, hospital methicillin-resistant strains (MRSA); conditions: hospital MRSA strain S. aureus 495
C. albicans ATCC 10231 = assay: MIC, twofold serial microdilution, standard fungal strains; conditions: C. albicans ATCC 10231, standard strain
[1] = test system: C. parapsilosis ATCC 22019; assay: as above; conditions: C. parapsilosis ATCC 22019, standard strain
P. aeruginosa ATCC 15442 = assay: MIC, twofold serial microdilution, standard strains; conditions: P. aeruginosa ATCC 15442, standard strain
S. epidermidis 510 = assay: MIC, hospital methicillin-resistant strains (MRSE); conditions: hospital MRSE strain S. epidermidis 510
S. epidermidis 436 = assay: MIC, hospital methicillin-resistant strains (MRSE); conditions: hospital MRSE strain S. epidermidis 436
[2] = test system: SW620 (metastatic colon cancer); assay: Cytotoxicity, MTT assay; type: cell-based, human; conditions: 72 h, mean SD
Method: (§1) MTT assay was performed as previously described. Experiments were repeated three times. […] Decreased relative MTT level means decreased cell viability.

[3] = test system: PC3 (metastatic prostate cancer); assay: Cytotoxicity, MTT assay; type: cell-based, human; conditions: 72 h, mean SD
Method: as §1

[4] = test system: SW480 (primary colon cancer); assay: Cytotoxicity, MTT assay; type: cell-based, human; conditions: 72 h, mean SD
Method: as §1

S. aureus ATCC 25923 = assay: MIC, twofold serial microdilution, standard strains; conditions: S. aureus ATCC 25923, standard strain
S. aureus 586 = assay: MIC, hospital methicillin-resistant strains (MRSA); conditions: hospital MRSA strain S. aureus 586
E. coli NCTC 10538 = assay: MIC, twofold serial microdilution, standard strains; conditions: E. coli NCTC 10538, standard strain
P. aeruginosa ATCC 27853 = assay: as above; conditions: P. aeruginosa ATCC 27853, standard strain
S. aureus 568 = assay: MIC, hospital methicillin-resistant strains (MRSA); conditions: hospital MRSA strain S. aureus 568
[5] = test system: Bacillus subtilis H17 (rec+); conditions: B. subtilis H17 (rec+); 256 µg per 9 mm disc (NOQ 2 µg per disc)
Method: (§2) DNA-damaging activity of compounds was tested by rec-assay using two genetically modified Bacillus subtilis strains: M45 (rec^−) and H17 (rec^+). Tested compounds were dissolved in DMSO, and 10 µL of each solution was dripped onto sterile cotton discs (Rotilabo) to load 256 µg of a given compound per 9 mm disc. Discs were placed on the surface Nutrient agar plates (Difco) inoculated with 100 µL of bacterial overnight culture and incubated for 24 h at 35 °C. After incubation, the growth inhibition zones were measured. […] Results of the genotoxicity test were estimated after 18 h of incubation at 35 °C by comparing the diameter of the inhibition zone on the B. subtilis M45 (rec^−) strain with that on the B. subtilis H17 (rec^+) strain.

[6] = test system: Bacillus subtilis M45 (rec−); conditions: B. subtilis M45 (rec−); 256 µg per 9 mm disc (NOQ 2 µg per disc)
Method: as §2

[7] = test system: S. epidermidis ATCC 35984; assay: MIC, twofold serial microdilution, standard strains; conditions: S. epidermidis ATCC 35984, standard strain
[8] = test system: S. epidermidis ATCC 12228; assay: as above; conditions: S. epidermidis ATCC 12228, standard strain
S. aureus 514 = assay: MIC, hospital methicillin-resistant strains (MRSA); conditions: hospital MRSA strain S. aureus 514
S. epidermidis 431 = assay: MIC, hospital methicillin-resistant strains (MRSE); conditions: hospital MRSE strain S. epidermidis 431
S. epidermidis 435 = assay: MIC, hospital methicillin-resistant strains (MRSE); conditions: hospital MRSE strain S. epidermidis 435
S. aureus NCTC 4163 = assay: MIC, twofold serial microdilution, standard strains; conditions: S. aureus NCTC 4163, standard strain
S. epidermidis 471 = assay: MIC, hospital methicillin-resistant strains (MRSE); conditions: hospital MRSE strain S. epidermidis 471
S. aureus 496 = assay: MIC, hospital methicillin-resistant strains (MRSA); conditions: hospital MRSA strain S. aureus 496
[9] = test system: methicillin-resistant Staphylococci (MRSA, MRSE); conditions: all hospital staphylococcal strains, Table 5
S. epidermidis 420 = assay: MIC, hospital methicillin-resistant strains (MRSE); conditions: hospital MRSE strain S. epidermidis 420
S. epidermidis 432 = assay: MIC, hospital methicillin-resistant strains (MRSE); conditions: hospital MRSE strain S. epidermidis 432
S. aureus 497 = assay: MIC, hospital methicillin-resistant strains (MRSA); conditions: hospital MRSA strain S. aureus 497
S. aureus 498 = assay: MIC, hospital methicillin-resistant strains (MRSA); conditions: hospital MRSA strain S. aureus 498
S. aureus ATCC 6538 = assay: MIC, twofold serial microdilution, standard strains; conditions: S. aureus ATCC 6538, standard strain
C. albicans ATCC 90028 = assay: MIC, twofold serial microdilution, standard fungal strains; conditions: C. albicans ATCC 90028, standard strain

SMILES: FC(F)(F)c1cccc([N-]C(=S)NCCc2ccccc2)c1.FC(F)(F)c1cccc([N-]C(=S)NCCc2ccccc2)c1.O.[Cu+2] [Cu1, Copper(II) Complex with 1-(2-phenylethyl)-3-[3-(trifluoromethyl)phenyl]thiourea]
- MIC (S. aureus 495): 64 mg/L
- MIC (C. albicans ATCC 10231): 128 mg/L
- MIC [1]: 64 mg/L
- MIC (P. aeruginosa ATCC 15442): 128 mg/L
- MIC (S. epidermidis 510): 64 mg/L
- MIC (S. epidermidis 436): 128 mg/L
- IC50 [2]: 62.6 ± 4.9 µM
- IC50 [3]: 100 ± 3.6 µM
- IC50 [4]: 68.7 ± 3.4 µM
- MIC (S. aureus ATCC 25923): 64 mg/L
- MIC (S. aureus 586): 64 mg/L
- MIC (E. coli NCTC 10538): ≥256 mg/L
- MIC (P. aeruginosa ATCC 27853): 128 mg/L
- MIC (S. aureus 568): 64 mg/L
- Genotoxic activity, inhibition zone diameter, H17 [5]: 16 mm
- Genotoxic activity, inhibition zone diameter, M45 [6]: 16 mm
- MIC [7]: 64 mg/L
- MIC [8]: 64 mg/L
- MIC (S. aureus 514): 64 mg/L
- MIC (S. epidermidis 431): 128 mg/L
- MIC (S. epidermidis 435): 64 mg/L
- MIC (S. aureus NCTC 4163): 64 mg/L
- MIC (S. epidermidis 471): 64 mg/L
- MIC (S. aureus 496): 64 mg/L
- MIC level against hospital staphylococcal strains [9]: 8 to 128 mg/L
- MIC (S. epidermidis 420): 64 mg/L
- MIC (S. epidermidis 432): 64 mg/L
- MIC (S. aureus 497): 64 mg/L
- MIC (S. aureus 498): 64 mg/L
- MIC (S. aureus ATCC 6538): 64 mg/L
- MIC (C. albicans ATCC 90028): 128 mg/L
